Results reported in patent US7855205B2, “Pyrimidinyl substituted fused-pyrrolyl compounds useful in treating kinase disorders” (Janssen Pharmaceutica NV, priority 2004, dated 2010).

Tests used:
[1] = test system: HeLa cervical adenocarcinoma; assay: Inhibition of cell proliferation (14C-thymidine incorporation), HeLa; assay type: cell-based; conditions: Homo sapiens;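 also: HeLa cells in 96-well scintillating plates, compound for 24 h then 24 h more with 14C-thymidine, counting label built into new DNA against DMSO-only control wells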
[2] = biological target: T1, VEGF-R2 (Rattus norvegicus, UniProt O08775); assay: VEGF-R2 Screening Assay; assay type: biochemical; conditions: 33P-γ-ATP incorporation, 10 μM ATP
T1 construct: polyhistidine (N)
Protocol: Then 1 μL of test compound stock in 100% DMSO was added to the wells resulting in a final concentration of 1% DMSO in the reaction with a 100 μL final reaction volume. The CDK1:Cyclin-B protein was then diluted in 50 mM Tris-HCl pH=8.0, 0.1% BSA at a concentration of 1 ng per μL and 30 μL (30 ng enzyme per test well) was added to each well to initiate the reaction. The reaction was incubated for one hour at 30° C. At the end of the 1 h incubation, the reaction was terminated by aspirating the mixture from the plate and washing the wells twice with PBS containing 100 mM EDTA. The histone-H1 biotinylated peptide substrate became immobilized on the Flashplate™ and the incorporation of ^33P-γ-ATP was measured by reading the plate on a scintillation counter. Inhibition of the enzymatic activity of CDK1 was measured by observing a reduced amount of ^33P-γ-ATP incorporated into the immobilized peptide. The VEGF-R kinase assay was carried out using the CDK kinase assay procedure except that the enzyme was replaced with the VEGF-R2 fusion protein containing a polyhistidine tag at the N-terminus followed by amino acids 786-1343 of the rat VEGF-R2 kinase domain (GenBank Accession #U93306).

[3] = biological target: T2, Aurora-A (Mus musculus, UniProt P97477); assay: Aurora-A Screening Assay; assay type: biochemical, murine; conditions: 33P-γ-ATP incorporation, 10 μM ATP
T2 construct: made in house; host or cells: sf9 insect cells
T2 sequence (P97477 1-395): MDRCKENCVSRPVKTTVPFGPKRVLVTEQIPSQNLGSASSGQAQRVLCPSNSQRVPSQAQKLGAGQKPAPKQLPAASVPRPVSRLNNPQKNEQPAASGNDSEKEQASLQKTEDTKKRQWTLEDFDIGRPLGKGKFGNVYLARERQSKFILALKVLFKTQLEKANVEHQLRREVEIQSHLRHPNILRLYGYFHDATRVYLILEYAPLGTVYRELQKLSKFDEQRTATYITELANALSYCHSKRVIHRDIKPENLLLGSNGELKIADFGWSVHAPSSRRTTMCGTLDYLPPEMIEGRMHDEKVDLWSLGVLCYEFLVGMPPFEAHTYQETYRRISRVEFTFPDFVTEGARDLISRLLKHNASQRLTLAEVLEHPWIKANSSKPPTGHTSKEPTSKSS
Protocol: (§1) A kinase reaction mixture was prepared containing 50 mM Tris-HCl pH=8, 10 mM MgCl2, 0.1 mM […], 1 mM DTT, 10 μM ATP, 0.025 μM biotinylated histone-HI peptide substrate and […] per well ^33P-γ-ATP (2000-3000 Ci/mmol). 70 μL of the kinase reaction mixture was dispensed into the well of a streptavidin coated FlashPlate™ (Cat. # SMP103, NEN, Boston, Mass.). Then 1 μL of test compound stock in 100% DMSO was added to the wells resulting in a final concentration of 1% DMSO in the reaction with a 100 μL final reaction volume.
(§2) The CDK1:Cyclin-B protein was then diluted in 50 mM Tris-HCl pH=8.0, 0.1% BSA at a concentration of 1 ng per μL and 30 μL (30 ng enzyme per test well) was added to each well to initiate the reaction. The reaction was incubated for one hour at 30° C. At the end of the 1 h incubation, the reaction was terminated by aspirating the mixture from the plate and washing the wells twice with PBS containing 100 mM EDTA. The histone-H1 biotinylated peptide substrate became immobilized on the Flashplate™ and the incorporation of ^33P-γ-ATP was measured by reading the plate on a scintillation counter. Inhibition of the enzymatic activity of CDK1 was measured by observing a reduced amount of ^33P-γ-ATP incorporated into the immobilized peptide.
The Aurora-A kinase assay was carried out using the CDK kinase assay procedure except that the enzyme was replaced with the full length protein encoding the murine Aurora-A (Accession# GB BC014711) expressed and purified from sf9 insect cells.
(§3) • VEGF-R2, HER2 and (Biotin)[…]-Amide • RET kinases • CDK1 (Biotin)[…]-Amide • Aurora-A kinase Biotin-[…]-Amide

[4] = test system: HCT-116 colon carcinoma; assay: Inhibition of cell proliferation (14C-thymidine incorporation), HCT-116; assay type: cell-based; conditions: Homo sapiens, HCT-116, HCT116
Protocol: (§4) The ability of a test compound to inhibit the proliferation of cell growth was determined by measuring incorporation of ^14C-labelled thymidine into newly synthesized DNA within the cells. This method was used on cell lines derived from carcinomas originating from several tissues such as HeLa cervical adenocarcinoma (American Type Culture Collection (ATCC), Virginia, Cat. #CCL-2), A375 malignant melanoma (ATCC CRL-1619), HCT-116 colon carcinoma (CCL-247). In this way the effect of a compound on cell growth of cells with many different phenotypes can be determined. Cells were trypsinized and counted and 3000-8000 cells were added to each well of a 96-well CytoStar tissue culture treated scintillating microplate (Amersham #RPNQ0160) in complete medium in a volume of 100 μL. Cells were incubated for 24 hours in complete medium at 37° C. in an atmosphere containing 5% CO2.
(§5) Next, 1 μL of test compound in 100% DMSO was added to the wells of the plate. DMSO only was added to control wells. Cells were incubated for 24 more hours in complete medium at 37° C. in an atmosphere containing 5% CO2. Methyl ^14C-thymidine 56 mCi/mmol (NEN #NEC568 or Amersham #CFA532) was diluted in complete medium and 0.2 uCi/well was added to each well of the CytoStar plate in a volume of 20 μl. The plate was incubated for 24 hours at 37° C. plus 5% CO2 in drug plus ^14C-thymidine. The contents of the plate discarded into a ^14C radioactive waste container by inverting the plate and the plate was washed twice with 200 μL PBS.
(§6) 200 μL of PBS is added to each well. The top of the plate was sealed with a transparent plate sealer and a white plate backing sealer (Packard #6005199) was applied to the bottom of the plate. The degree of methyl ^14C-thymidine incorporation was quantified on a Packard Top Count.

[5] = biological target: T3, CDK1:Cyclin-B (Homo sapiens, UniProt P06493); assay: CDK1 Screening Assay; assay type: biochemical; conditions: 33P-γ-ATP incorporation, 10 μM ATP
T3 construct: purchased New England Biolabs, Beverly, Mass; 6020; host or cells: insect cells
Protocol: as §1, §2
The CDK1 used was isolated from insect cells expressing both the human CDK1 catalytic subunit and its positive regulatory subunit cyclin B (New England Biolabs, Beverly, Mass., Cat. #6020).
as §3

[6] = test system: A375 malignant melanoma; assay: Inhibition of cell proliferation (14C-thymidine incorporation), A375; assay type: cell-based, human; conditions: Homo sapiens, A-375
Protocol: as §4, §5, §6

T1 sequence (O08775 786-1343): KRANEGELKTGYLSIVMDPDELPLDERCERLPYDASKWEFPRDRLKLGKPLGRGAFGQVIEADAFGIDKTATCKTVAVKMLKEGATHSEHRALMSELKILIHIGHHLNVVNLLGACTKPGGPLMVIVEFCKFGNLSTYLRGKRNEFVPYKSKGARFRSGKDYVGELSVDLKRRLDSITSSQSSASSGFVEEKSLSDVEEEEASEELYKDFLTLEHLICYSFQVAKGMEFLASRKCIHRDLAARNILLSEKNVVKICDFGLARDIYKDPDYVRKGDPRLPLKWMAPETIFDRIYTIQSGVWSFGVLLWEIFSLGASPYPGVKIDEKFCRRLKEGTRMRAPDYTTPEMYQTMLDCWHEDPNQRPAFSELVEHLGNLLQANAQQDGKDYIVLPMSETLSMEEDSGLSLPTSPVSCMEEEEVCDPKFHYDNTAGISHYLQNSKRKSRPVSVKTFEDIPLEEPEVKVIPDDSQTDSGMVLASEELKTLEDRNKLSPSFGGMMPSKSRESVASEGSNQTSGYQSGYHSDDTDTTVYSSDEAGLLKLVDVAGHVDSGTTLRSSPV
T3 sequence (P06493 whole entry): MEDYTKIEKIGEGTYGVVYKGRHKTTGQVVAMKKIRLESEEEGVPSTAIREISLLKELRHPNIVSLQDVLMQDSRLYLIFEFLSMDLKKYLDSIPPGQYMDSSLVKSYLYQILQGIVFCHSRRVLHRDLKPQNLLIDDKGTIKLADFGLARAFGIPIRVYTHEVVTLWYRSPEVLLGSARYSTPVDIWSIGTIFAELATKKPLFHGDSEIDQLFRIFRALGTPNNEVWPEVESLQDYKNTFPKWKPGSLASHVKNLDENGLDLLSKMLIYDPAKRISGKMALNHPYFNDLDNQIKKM
T3 sequence (P14635 whole entry partner): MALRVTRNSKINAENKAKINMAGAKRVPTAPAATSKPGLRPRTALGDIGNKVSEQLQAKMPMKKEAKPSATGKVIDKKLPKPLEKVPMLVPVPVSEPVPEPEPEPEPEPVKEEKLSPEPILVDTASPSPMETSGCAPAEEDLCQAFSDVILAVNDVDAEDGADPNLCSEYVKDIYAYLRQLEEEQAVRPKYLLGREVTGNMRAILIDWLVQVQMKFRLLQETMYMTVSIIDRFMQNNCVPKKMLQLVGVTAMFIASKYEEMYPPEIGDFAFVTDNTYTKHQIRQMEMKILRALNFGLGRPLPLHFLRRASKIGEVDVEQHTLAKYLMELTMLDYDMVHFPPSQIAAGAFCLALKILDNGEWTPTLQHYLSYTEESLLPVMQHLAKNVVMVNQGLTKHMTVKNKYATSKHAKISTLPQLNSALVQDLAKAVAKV

| Structure (SMILES) | IC50 [1] [µM] | IC50 [2] [µM] | IC50 [3] [µM] | IC50 [4] [µM] | IC50 [5] [µM] | IC50 [6] [µM] |
| --- | --- | --- | --- | --- | --- | --- |
| Cc1cc(Br)ccc1Nc1nccc(-c2c[nH]c3ncccc23)n1 [Cpd 41, (4-Bromo-2-methylphenyl)-[4-(1H-pyrrolo[2,3-b]pyridin-3-yl)-pyrimidin-2-yl]-amine] | 0.0101 | 1.64 | 0.182 | 0.0132 | 0.0063 | 0.042 |
| Cc1cccc(Nc2nccc(-c3c[nH]c4ncccc34)n2)c1C [Cpd 34, (2,3-Dimethylphenyl)-[4-(1H-pyrrolo[2,3-b]pyridin-3-yl)-pyrimidin-2-yl]-amine] | 0.0114 | 0.618 | 0.238 | 0.00137 | 0.004 | 0.0157 |
| Oc1ccc(Nc2nccc(-c3c[nH]c4ncccc34)n2)cc1 [Cpd 39, (4-Hydroxyphenyl)-[4-(1H-pyrrolo[2,3-b]pyridin-3-yl)-pyrimidin-2-yl]-amine] | 0.384 | 1.66 | 0.735 | 0.242 | 0.168 | 0.862 |
| N[C@H]1CC[C@H](Nc2nccc(-c3c[nH]c4ncccc34)n2)CC1 [Cpd 42, trans-N-[4-(1H-Pyrrolo[2,3-b]pyridin-3-yl)-pyrimidin-2-yl]-cyclohexane-1,4-diamine] | 0.00112 | 7.88 | 0.917 | 0.000353 | 0.002 | 0.000743 |
| Fc1ccccc1Nc1nccc(-c2c[nH]c3ncccc23)n1 [Cpd 31, (2-Fluorophenyl)-[4-(1H-pyrrolo[2,3-b]pyridin-3-yl)-pyrimidin-2-yl]-amine] | 0.0992 | 1 | 0.1 | 0.105 | 0.046 | 0.11 |
| OCCn1cc(-c2ccnc(N[C@H]3CC[C@H](O)CC3)n2)c2cccnc21 [Cpd 72, trans-4-{4-[1-(2-Hydroxyethyl)-1H-pyrrolo[2,3-b]pyridin-3-yl]-pyrimidin-2-ylamino}-cyclohexanol] | 0.144 | 10 | 6.06 | 0.077 | 0.6 | 0.165 |
| c1cnc2[nH]cc(-c3ccnc(NC4CCCCC4)n3)c2c1 [Cpd 13, Cyclohexyl-[4-(1H-pyrrolo[2,3-b]pyridin-3-yl)-pyrimidin-2-yl]-amine] | 0.031 | 2.08 | 0.263 | 0.032 | 0.014 | 0.033 |
| NC1CCN(c2nccc(-c3c[nH]c4ncccc34)n2)CC1 [Cpd 62, 1-[4-(1H-pyrrolo[2,3-b]pyridin-3-yl)-pyrimidin-2-yl]-piperidin-4-ylamine] | 1.08 | 2.67 | 0.762 | 0.525 | 0.5 | 0.622 |
| c1cnc2[nH]cc(-c3ccnc(NC4CCOCC4)n3)c2c1 [Cpd 60, (Tetrahydropyran-4-yl)-[4-(1H-pyrrolo[2,3-b]pyridin-3-yl)-pyrimidin-2-yl]-amine] | 0.0411 | 2.46 | 1.51 | 0.0175 | 0.0373 | 0.0417 |
| Oc1ccccc1Nc1nccc(-c2c[nH]c3ncccc23)n1 [Cpd 30, (2-Hydroxyphenyl)-[4-(1H-pyrrolo[2,3-b]pyridin-3-yl)-pyrimidin-2-yl]-amine] | 0.956 | 0.049 | 0.289 | 0.652 | 0.139 | 1.65 |
| COc1ccc(Nc2nccc(-c3c[nH]c4ncccc34)n2)c(C)c1 [Cpd 27, (4-Methoxy-2-methylphenyl)-[4-(1H-pyrrolo[2,3-b]pyridin-3-yl)-pyrimidin-2-yl]-amine] | 0.0072 | 1 | 0.357 | 0.00639 | 0.002 | 0.0045 |
| Brc1ccccc1Nc1nccc(-c2c[nH]c3ncccc23)n1 [Cpd 28, (2-Bromophenyl)-[4-(1H-pyrrolo[2,3-b]pyridin-3-yl)-pyrimidin-2-yl]-amine] | 0.0952 | 1 | 0.175 | 0.118 | 0.0127 | 0.0676 |
| c1cnc2[nH]cc(-c3ccnc(NC4CCCC4)n3)c2c1 [Cpd 14, Cyclopentyl-[4-(1H-pyrrolo[2,3-b]pyridin-3-yl)-pyrimidin-2-yl]-amine] | 0.059 | 2.23 | 0.885 | 0.078 | 0.088 | 0.093 |
| CC1CCC(Nc2nccc(-c3c[nH]c4ncccc34)n2)CC1 (mixture of isomers) [Cpd 17, (4-Methyl-cyclohexyl)-[4-(1H-pyrrolo[2,3-b]pyridin-3-yl)-pyrimidin-2-yl]-amine] | 0.0243 | 3.81 | 0.312 | 0.0208 | 0.012 | 0.014 |
| Cc1cc(CCN2CCN(C)CC2)ccc1Nc1nccc(-c2c[nH]c3ncccc23)n1 [Cpd 51, {4-[2-(4-Methylpiperizin-1-yl)ethyl]-2-methylphenyl}-[4(1H-pyrrolo[2,3-b]pyridin-3-yl)-pyrimidin-2-yl]-amine] | 0.00466 | 1.25 | 0.895 | 0.00361 | 0.0026 | 0.00352 |
| CC(=O)N1CCC(Nc2nccc(-c3c[nH]c4ncccc34)n2)CC1 [Cpd 64, 1-{4-[4-(1H-pyrrolo[2,3-b]pyridin-3-yl)pyrimidin-2-ylamino]piperidin-1-yl}ethanone] | 0.136 | 10 | 1.68 | 0.0689 | 0.0498 | 0.155 |
